Experimental data: the NIST ThermoML archive (doi:10.1016/j.jct.2019.02.027)
Where “and” joins values, the source holds several entries; their conditions need not be identical. Identical values can stand only once. ± gives the expanded uncertainty stated by the source. Values belong to the compound of their own block, whether it stands above or below them.

Legend:
[1] = xn = mol fraction of the nth substance listed; conditions: 298.15 K, 100 kPa, Liquid, Vibrating tube method
[2] = 298.15 K; 101.33 kPa; Liquid; Vibrating tube method

mass density ([1]; x1 = 0.0549): 808.11 ± 2.8 kg/m3 | mass density ([1]; x1 = 0.0656): 809.45 ± 2.8 kg/m3 | mass density ([1]; x1 = 0.0952): 812.22 ± 2.8 kg/m3 | mass density ([1]; x1 = 0.1847): 821.08 ± 2.8 kg/m3 | mass density ([1]; x1 = 0.2954): 831.67 ± 2.8 kg/m3 | mass density ([1]; x1 = 0.3763): 839.84 ± 2.8 kg/m3 | mass density ([1]; x1 = 0.4673): 849.03 ± 2.8 kg/m3 | mass density ([1]; x1 = 0.5696): 859.9 ± 2.8 kg/m3 | mass density ([1]; x1 = 0.6998): 873.97 ± 2.8 kg/m3 | mass density ([1]; x1 = 0.7611): 881.06 ± 2.8 kg/m3 | mass density ([1]; x1 = 0.8132): 887.16 ± 2.9 kg/m3 | mass density ([1]; x1 = 0.8548): 891.9 ± 2.9 kg/m3 | mass density ([1]; x1 = 0.8832): 895.12 ± 2.9 kg/m3 | mass density ([1]; x1 = 0.8998): 897.35 ± 2.9 kg/m3 | mass density ([1]; x1 = 0.9091): 898.45 ± 2.9 kg/m3 | mass density ([1]; x1 = 0.9333): 901.44 ± 2.9 kg/m3 | mass density ([1]; x1 = 1): 910.73 ± 2.4 kg/m3
SMILES: Cc1ccco1 [2-methylfuran] + CCC(C)O

mass density ([1]; x1 = 0.0907): 813.42 ± 3.6 kg/m3 | mass density ([1]; x1 = 0.1322): 816.51 ± 3.6 kg/m3 | mass density ([1]; x1 = 0.1794): 820.47 ± 3.6 kg/m3 | mass density ([1]; x1 = 0.2576): 827.04 ± 3.6 kg/m3 | mass density ([1]; x1 = 0.3029): 831.05 ± 3.6 kg/m3 | mass density ([1]; x1 = 0.4278): 842.47 ± 3.6 kg/m3 | mass density ([1]; x1 = 0.4997): 849.64 ± 3.6 kg/m3 | mass density ([1]; x1 = 0.6108): 861.2 ± 3.6 kg/m3 | mass density ([1]; x1 = 0.6993): 871.1 ± 3.6 kg/m3 | mass density ([1]; x1 = 0.7296): 874.59 ± 3.6 kg/m3 | mass density ([1]; x1 = 0.8143): 884.9 ± 3.6 kg/m3 | mass density ([1]; x1 = 0.8675): 891.71 ± 3.6 kg/m3 | mass density ([1]; x1 = 0.9023): 896.39 ± 3.6 kg/m3 | mass density ([1]; x1 = 0.9441): 902.21 ± 3.6 kg/m3 | mass density ([1]; x1 = 1): 910.73 ± 3.6 kg/m3
SMILES: Cc1ccco1 [2-methylfuran] + CCCC(C)O

mass density ([1]; x1 = 0.048): 819.02 ± 3.7 kg/m3 | mass density ([1]; x1 = 0.0765): 820.93 ± 3.7 kg/m3 | mass density ([1]; x1 = 0.1423): 825.44 ± 3.7 kg/m3 | mass density ([1]; x1 = 0.2086): 830.14 ± 3.7 kg/m3 | mass density ([1]; x1 = 0.2804): 835.45 ± 3.7 kg/m3 | mass density ([1]; x1 = 0.3598): 841.72 ± 3.7 kg/m3 | mass density ([1]; x1 = 0.4591): 850.07 ± 3.7 kg/m3 | mass density ([1]; x1 = 0.4916): 852.91 ± 3.7 kg/m3 | mass density ([1]; x1 = 0.5728): 860.42 ± 3.7 kg/m3 | mass density ([1]; x1 = 0.6478): 867.88 ± 3.7 kg/m3 | mass density ([1]; x1 = 0.7965): 884.09 ± 3.7 kg/m3 | mass density ([1]; x1 = 0.8596): 891.67 ± 3.7 kg/m3 | mass density ([1]; x1 = 0.888): 895.23 ± 3.7 kg/m3 | mass density ([1]; x1 = 0.9411): 902.08 ± 3.7 kg/m3 | mass density ([1]; x1 = 1): 910.73 ± 3.6 kg/m3
SMILES: Cc1ccco1 [2-methylfuran] + CCCCCCO
mass density ([1]; x1 = 0.7472): 878.45 ± 3.7 kg/m3 and 878.33 ± 3.7 kg/m3

mass density ([1]; x1 = 0.1002): 819.28 ± 2.5 kg/m3 | mass density ([1]; x1 = 0.1263): 821.43 ± 2.5 kg/m3 | mass density ([1]; x1 = 0.1771): 825.74 ± 2.5 kg/m3 | mass density ([1]; x1 = 0.22): 829.43 ± 2.5 kg/m3 | mass density ([1]; x1 = 0.2723): 834 ± 2.5 kg/m3 | mass density ([1]; x1 = 0.3399): 840.06 ± 2.5 kg/m3 | mass density ([1]; x1 = 0.4257): 848.01 ± 2.5 kg/m3 | mass density ([1]; x1 = 0.4599): 851.26 ± 2.5 kg/m3 | mass density ([1]; x1 = 0.5134): 856.49 ± 2.5 kg/m3 | mass density ([1]; x1 = 0.593): 864.51 ± 2.5 kg/m3 | mass density ([1]; x1 = 0.6556): 871.07 ± 2.5 kg/m3 | mass density ([1]; x1 = 0.7006): 875.92 ± 2.5 kg/m3 | mass density ([1]; x1 = 0.7559): 881.98 ± 2.5 kg/m3 | mass density ([1]; x1 = 0.8293): 890.24 ± 2.5 kg/m3 | mass density ([1]; x1 = 0.8836): 896.44 ± 2.5 kg/m3 | mass density ([1]; x1 = 1): 910.73 ± 2.4 kg/m3
SMILES: Cc1ccco1 [2-methylfuran] + CCCCCO

SMILES: CCC(C)O (stereo not given) [butan-2-ol]
mass density [2]: 802.88 ± 1 kg/m3

SMILES: CCC(C)O (stereo not given) [butan-2-ol] + Cc1ccco1
mass density ([1]; x2 = 0): 802.88 ± 2.4 kg/m3

SMILES: CCC(C)O (stereo not given) [butan-2-ol] + O=Cc1ccco1
mass density ([1]; x2 = 0): 802.88 ± 2.8 kg/m3

mass density [2]: 785.45 ± 1 kg/m3
SMILES: CCO [ethanol]

mass density ([1]; x1 = 0.0641): 970.7 ± 3.1 kg/m3 | mass density ([1]; x1 = 0.127): 952.3 ± 2.7 kg/m3 | mass density ([1]; x1 = 0.1461): 950.1 ± 2.4 kg/m3 | mass density ([1]; x1 = 0.2437): 920.1 ± 2.8 kg/m3 | mass density ([1]; x1 = 0.387): 883.5 ± 2.7 kg/m3 | mass density ([1]; x1 = 0.4238): 876.2 ± 2.5 kg/m3 | mass density ([1]; x1 = 0.7084): 825.2 ± 2.4 kg/m3 | mass density ([1]; x1 = 1): 785.5 ± 2.3 kg/m3
SMILES: CCO [ethanol] + O

SMILES: CCCCCCO [hexan-1-ol]
mass density [2]: 815.9 ± 2.8 kg/m3

SMILES: CCCCCCO [hexan-1-ol] + Cc1ccco1
mass density ([1]; x2 = 0): 815.9 ± 3.6 kg/m3

SMILES: CCCCCCO [hexan-1-ol] + O=Cc1ccco1
mass density ([1]; x2 = 0): 815.9 ± 3.8 kg/m3

SMILES: CCCCCO [pentan-1-ol]
mass density [2]: 810.9 ± 1 kg/m3

SMILES: CCCCCO [pentan-1-ol] + Cc1ccco1
mass density ([1]; x2 = 0): 810.9 ± 2.4 kg/m3

SMILES: CCCCCO [pentan-1-ol] + O=Cc1ccco1
mass density ([1]; x2 = 0): 810.9 ± 2.8 kg/m3

SMILES: CCCC(C)O (stereo not given) [pentan-2-ol]
mass density [2]: 806.48 ± 2.8 kg/m3

SMILES: CCCC(C)O (stereo not given) [pentan-2-ol] + Cc1ccco1
mass density ([1]; x2 = 0): 806.48 ± 3.6 kg/m3

SMILES: CCCC(C)O (stereo not given) [pentan-2-ol] + O=Cc1ccco1
mass density ([1]; x2 = 0): 806.48 ± 3.8 kg/m3 | mass density ([1]; x2 = 0.092): 831.24 ± 3.9 kg/m3 | mass density ([1]; x2 = 0.1912): 859.17 ± 3.9 kg/m3 | mass density ([1]; x2 = 0.2652): 880.87 ± 3.9 kg/m3 | mass density ([1]; x2 = 0.3627): 910.83 ± 3.9 kg/m3 | mass density ([1]; x2 = 0.4245): 930.64 ± 3.9 kg/m3 | mass density ([1]; x2 = 0.4984): 955.28 ± 3.9 kg/m3 | mass density ([1]; x2 = 0.5417): 970.2 ± 3.9 kg/m3 | mass density ([1]; x2 = 0.6211): 998.57 ± 3.9 kg/m3 | mass density ([1]; x2 = 0.6746): 1018.53 ± 3.9 kg/m3 | mass density ([1]; x2 = 0.7117): 1032.71 ± 3.9 kg/m3 | mass density ([1]; x2 = 0.7692): 1055.38 ± 3.9 kg/m3 | mass density ([1]; x2 = 0.8249): 1078.15 ± 3.9 kg/m3 | mass density ([1]; x2 = 0.879): 1101.1 ± 4 kg/m3 | mass density ([1]; x2 = 0.9111): 1115.13 ± 4 kg/m3 | mass density ([1]; x2 = 0.9542): 1134.34 ± 4 kg/m3

SMILES: CCCO [propan-1-ol]
mass density [2]: 799.97 ± 0.64 kg/m3

SMILES: CCCO [propan-1-ol] + O=Cc1ccco1
mass density ([1]; x2 = 0): 799.97 ± 2.8 kg/m3

SMILES: CC(C)O [propan-2-ol]
mass density [2]: 780.95 ± 1 kg/m3

SMILES: CC(C)O [propan-2-ol] + Cc1ccco1
mass density ([1]; x2 = 0): 780.95 ± 2.4 kg/m3

SMILES: CC(C)O [propan-2-ol] + O=Cc1ccco1
mass density ([1]; x2 = 0): 780.95 ± 2.8 kg/m3
